* marks the point of attachment. Acm = CC(=O)NC*

This assay has as its system KLN-205 squamous epithelial syngenic tumour cells. Nature of the assay: In vivo transfection of KLN-205 tumours in DBA2 mice by local injection of peptide/plasmid complexes (nitroreductase immunostaining). Further details: species or system mouse. To be noted: for ranking by numbers of transfected tumor cells (most to least efficient): 0.5 μg peptide/μg DNA, intratumoural injection. As to the method:
A representative in via cell transfection system is transfection of tumor cells using a murine carcinoma model.
The murine carcinoma model DBA2 containing the squamous epithelial syngenic tumour cell line KLN-205 was prepared as described in the Examples. A transfecting complex was prepared using a solution of plasmid DNA encoding a reporter gene or, for example, nitroreductase and a selected NBC peptide 0.5 μg peptide/μg DNA, as described herein. Where desired, a conjugate peptide was added to the transfecting complex, at a concentration of 0.1-0.3 μg […] peptide/μg DNA.
Transfection efficiency may be determined in a number of ways, including assessing the effect of the reporter gene on the target tissue, or by quantitating the gene product. Below, tissues samples were obtained and nitroreductase gene expression was ascertained via staining of tissue sections.
The ability to transfect tumor cells in vivo in mice was tested using plasmid nucleic acid carrying the nitroreductase reporter gene condensed on each of the following peptides: NBC15, NBC8, NBC9, NBC11, NBC7.
DBA2--male mice, aged 5-10 weeks were injected subcutaneously in each flank with a squamous epithelial syngenic tumour cell line KLN-205. The cell line was grown up in 175 ml T-flasks in standard EMEM medium containing 10% foetal calf serum. When the cells reached a density of 4×10^6 they were suspended by a standard trypsinization technique, washed in PBS and diluted to a final concentration of […].
The anaesthetic was Enflurane (Alynane; Anaquest, Ltd., Windlesham, Surrey UK): Ketamine (10% Ketaset, Willows Francis Veterinary, Cramley, West Sussex, UK); Rompun (2%, Bayer UK, Ltd., Suffolk, UK). For 10 ml anaesthetic mixture: 8.5 ml PBS; 1 ml Ketamine; 0.5 ml Rompun. Each animal was injected intra-peritoneally with 200 μl/animal using 1 ml syringe with 25 gauge needle. Once anaesthetized, the tumour is manipulated between the fingers lifting it slightly away from the animal's body and at the same time apply minimum pressure to the tumour. Using a 0.5 ml insulin needle the formulated delivery vehicle (a plasmid containing the E. coli nitroreductase gene condensed on a peptide at a ratio of 0.5 μg peptide/μg DNA) to be injected is taken up and the tumour is injected horizontally trying to avoid any visible blood vessels and necrotic or abnormal tissue. Daily monitoring is continued until the experiment is terminated.
7μ sections of frozen tumour tissue are prepared using standard methods and a Cryostat and air dried. Sections are fixed with freshly prepared 4% PFA/PBS for 30 mins at room temperature and then washed twice with 0.01% Tween-20/PBS 5 mins each wash. Sections are then immersed in 0.25% hydrogen peroxide/PBS, at room temperature (20C.) for 30 mins, and then washed three times in 0.01% Tween 20/PBS for 5 mins each wash. Sections are then permeabilised by treatment with ice cold 0.1 % TRITON X-100 for 5 mins, followed by a further two washes in 0.01% Tween-20/PBS 5mins each wash. The sections are then blocked with 5% NGS/PBS 60mins at room temperature in a wetbox. After decanting the blocking solution, 0.5 ml diluted antiserum/slide (1:400 in 2.5% NGS) is added and the sections incubated for 60 mins at room temperature. Slides are then washed three times in 0.01% Tween-20/PBS 5 mins each wash. Secondary antibody (0.5 ml) from ABC Elite Vector stain kit is added as follows and incubated 30 mins at room temperature in a wetbox.
The tumour is a murine syngenic squamous carcinoma produced by subcutaneous injection of KLN205 cells. When the tumours were approximately 4 mm in diameter they were injected with 20 μl of plasmid DNA formulated with the NBC15 peptide. After 48 h the tumours were excised and sectioned by standard histological techniques and immunostained for expression of the transgene (E. coli nitroreductase). […] In this case the tumours were injected with the same plasmid formulated in 0.5 μg NBC9 peptide/μg DNA.

Regarding “NH2-KKSPKKAKKPAAKKSPKKAKKPAYC(Acm)-COOH (H-KKSPKKAKKPAAKKSPKKAKKPAYC(Acm)-OH; SMILES CC(=O)NCSC[C@H](NC(=O)[C@H](Cc1ccc(O)cc1)NC(=O)[C@H](C)NC(=O)[C@@H]1CCCN1C(=O)[C@H](CCCCN)NC(=O)[C@H](CCCCN)NC(=O)[C@H](C)NC(=O)[C@H](CCCCN)NC(=O)[C@H](CCCCN)NC(=O)[C@@H]1CCCN1C(=O)[C@H](CO)NC(=O)[C@H](CCCCN)NC(=O)[C@H](CCCCN)NC(=O)[C@H](C)NC(=O)[C@H](C)NC(=O)[C@@H]1CCCN1C(=O)[C@H](CCCCN)NC(=O)[C@H](CCCCN)NC(=O)[C@H](C)NC(=O)[C@H](CCCCN)NC(=O)[C@H](CCCCN)NC(=O)[C@@H]1CCCN1C(=O)[C@H](CO)NC(=O)[C@H](CCCCN)NC(=O)[C@@H](N)CCCCN)C(=O)O) [NBC8]”, the “ranking by numbers of transfected tumor cells (most to least efficient)” value was “NBC15>NBC8, NBC9, NBC11>NBC7>>>poly-lysine”. In addition, the “transfection efficiency on direct injection within a localized area” value (in vivo, direct injection, e.g. a tumour) is on record as “optimal transfection efficiency”.

With “NH2-TKKAWKKAEKKAAKKCGVSAKKAAKKAWKKA-CONH2 (H-TKKAWKKAEKKAAKKCGVSAKKAAKKAWKKA-NH2) [NBC11]”, the “ranking by numbers of transfected tumor cells (most to least efficient)” value was “NBC15>NBC8, NBC9, NBC11>NBC7>>>poly-lysine”.

For the origin of these results see patent US6218112A, “Optimization of gene delivery and gene delivery system” (Cobra Therapeutics Limited, priority 1997, dated 2001).
